Here are results for 5 molecules from paper PMC7995636 (Bioorganic & medicinal chemistry, 2021).

In data set [1] the test system is P-glycoprotein (Pgp). The settings on record: cited from earlier work.
Data set [2] relates to breast cancer resistance protein (BCRP1). The settings on record: cited from earlier work.
For data set [3] the following is noted: higher in brain; cited from earlier work.
In data set [4] the target is Bovine brain tubulin (Bos taurus, UniProt Q6B856). The data set can be described thus: Inhibition of tubulin assembly. Type of data set: biochemical.
Data set [5] deals with PDGFR-β (Homo sapiens, UniProt P09619). The data set can be described thus: Phosphotyrosine ELISA, PDGFR-β kinase inhibition. The data set is classed as cell-based. The settings on record: compared to 1.
The subject of data set [6] is HeLa WT-βIII cells. Briefly: SRB assay, HeLa WT-βIII. The data set is classed as cell-based. The settings on record: Homo sapiens, read-out: IC50 ± SD in WT βIII.
In data set [7] the test system is HeLa cells. Briefly: SRB assay, HeLa. The data set is classed as cell-based. Conditions: Homo sapiens, read-out: IC50 ± SD in HeLa.

Bovine brain tubulin, sequence (Q6B856 whole entry): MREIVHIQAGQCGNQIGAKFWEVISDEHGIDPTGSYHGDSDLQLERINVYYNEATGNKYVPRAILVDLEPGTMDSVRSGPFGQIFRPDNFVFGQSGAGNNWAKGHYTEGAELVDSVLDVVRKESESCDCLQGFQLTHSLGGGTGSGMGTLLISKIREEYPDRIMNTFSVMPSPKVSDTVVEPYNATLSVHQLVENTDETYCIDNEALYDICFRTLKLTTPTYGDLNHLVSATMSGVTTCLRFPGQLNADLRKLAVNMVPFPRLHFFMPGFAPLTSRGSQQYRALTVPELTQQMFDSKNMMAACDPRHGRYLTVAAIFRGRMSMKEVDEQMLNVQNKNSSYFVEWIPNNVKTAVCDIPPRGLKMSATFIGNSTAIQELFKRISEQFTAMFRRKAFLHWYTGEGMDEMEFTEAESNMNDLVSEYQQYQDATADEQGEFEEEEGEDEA
Bovine brain tubulin, sequence (P81947 whole entry partner): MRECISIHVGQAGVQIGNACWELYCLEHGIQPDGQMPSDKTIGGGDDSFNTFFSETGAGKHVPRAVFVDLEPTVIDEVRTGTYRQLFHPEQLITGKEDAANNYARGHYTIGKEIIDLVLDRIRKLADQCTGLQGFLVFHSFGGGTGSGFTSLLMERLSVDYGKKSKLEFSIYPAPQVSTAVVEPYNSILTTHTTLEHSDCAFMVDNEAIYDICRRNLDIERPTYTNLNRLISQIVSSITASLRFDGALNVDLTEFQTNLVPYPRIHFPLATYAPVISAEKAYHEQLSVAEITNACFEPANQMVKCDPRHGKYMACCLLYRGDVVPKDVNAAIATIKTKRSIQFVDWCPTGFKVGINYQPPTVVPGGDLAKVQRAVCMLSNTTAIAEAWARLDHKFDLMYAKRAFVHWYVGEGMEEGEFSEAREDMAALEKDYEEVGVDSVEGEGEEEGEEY
PDGFR-β, sequence (P09619 33-1106): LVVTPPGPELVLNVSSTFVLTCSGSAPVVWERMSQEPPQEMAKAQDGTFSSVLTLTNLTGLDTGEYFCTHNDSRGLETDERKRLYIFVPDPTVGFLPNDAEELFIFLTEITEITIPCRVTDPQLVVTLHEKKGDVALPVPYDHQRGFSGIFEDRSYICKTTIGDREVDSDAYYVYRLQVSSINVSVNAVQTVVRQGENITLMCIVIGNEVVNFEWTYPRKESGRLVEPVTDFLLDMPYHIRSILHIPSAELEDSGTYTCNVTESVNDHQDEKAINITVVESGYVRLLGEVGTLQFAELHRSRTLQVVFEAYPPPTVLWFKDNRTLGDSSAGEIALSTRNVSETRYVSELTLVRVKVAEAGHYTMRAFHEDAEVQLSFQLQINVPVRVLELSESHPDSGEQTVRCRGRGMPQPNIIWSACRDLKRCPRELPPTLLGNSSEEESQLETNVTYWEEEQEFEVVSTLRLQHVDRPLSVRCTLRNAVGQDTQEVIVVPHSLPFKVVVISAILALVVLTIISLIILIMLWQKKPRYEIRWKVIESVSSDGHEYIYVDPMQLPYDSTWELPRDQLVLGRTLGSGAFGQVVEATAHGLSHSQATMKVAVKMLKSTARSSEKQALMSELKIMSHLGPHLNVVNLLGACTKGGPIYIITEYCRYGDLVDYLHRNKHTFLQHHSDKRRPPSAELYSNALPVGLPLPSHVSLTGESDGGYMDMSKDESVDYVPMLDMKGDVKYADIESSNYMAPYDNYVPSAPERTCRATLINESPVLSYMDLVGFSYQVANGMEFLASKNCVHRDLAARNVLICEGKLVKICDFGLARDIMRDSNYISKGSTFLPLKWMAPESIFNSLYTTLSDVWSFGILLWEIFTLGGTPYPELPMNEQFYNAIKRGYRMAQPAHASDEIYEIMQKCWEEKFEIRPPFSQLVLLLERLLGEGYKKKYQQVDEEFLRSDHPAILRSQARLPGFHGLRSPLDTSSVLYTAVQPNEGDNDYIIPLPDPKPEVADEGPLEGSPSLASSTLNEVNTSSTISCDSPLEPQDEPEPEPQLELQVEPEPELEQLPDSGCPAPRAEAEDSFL

Take `COc1ccc(N(C)c2nc(C)nc3ccccc23)cc1` [Compound 1, N-(4-Methoxyphenyl)-N,2-dimethylquinazolin-4-amine]: the “substrate for P-glycoprotein (Pgp)” value in data set [1] is “not a substrate”. In data set [2], the “substrate for breast cancer resistance protein (BCRP1)” value was “not a substrate”. Besides, the “concentrations in the brain compared to the plasma” value in data set [3] is on record as 30 fold.

Consider `CSc1ccc(N(C)c2nc(C)nc3ccccc23)cc1` [Compound 3, N,2-Dimethyl-N-(4-(methylthio)phenyl)quinazolin-4-amine], for which the IC50 in data set [4] worked out at 480 ± 70 nM.

Take `COc1cccc2cc(N(C)c3nc(C)nc4ccccc34)ccc12` [Compound 4, N-(5-Methoxynaphthalen-2-yl)-N,2-dimethylquinazolin-4-amine]: in data set [5], the “fold loss of potency with PDGFR-β” value is given as ~ 5 fold. This molecule also registered a 50% inhibitory concentration (IC50) in data set [4] of 640 ± 10 nM.

For `COc1ccc(N(C)c2nc(Cl)nc3ccccc23)cc1` [Compound 8, 2-Chloro-N-(4-methoxyphenyl)-N-methylquinazolin-4-amine], the IC50 in data set [4] was determined as 470 ± 20 nM.

For the molecule `CC(=O)O[C@H]1C(=O)[C@@]2(C)[C@H]([C@H](OC(=O)c3ccccc3)[C@]3(O)C[C@H](OC(=O)[C@H](O)[C@@H](NC(=O)c4ccccc4)c4ccccc4)C(C)=C1C3(C)C)[C@]1(OC(C)=O)CO[C@@H]1C[C@@H]2O` [Paclitaxel], the IC50 was 24 ± 0.2 nM in data set [6] and 2.8 ± 0.4 nM in data set [7].
